The source of these data is patent US20090312280A1.

One assay relates to Colo205 (Colon). Nature of the assay: cell survival / MTT combination cytotoxicity. The class given is cell-based, human. The conditions noted are these: Colo205; IC50 cytotoxic agent alone / IC50 combination; Compound 1 at 8x EC50 (360 nM).
Another assay deals with MDA-MB-231 (Breast). As to the kind of experiment: cell survival / MTT combination cytotoxicity. The class given is cell-based, human. Conditions: IC50 cytotoxic agent alone / IC50 combination, Compound 1 at 8x EC50 (360 nM).
The test system of the next assay is HT29 (Colon). As to the kind of experiment: cell survival / MTT combination cytotoxicity. The assay is classed as cell-based, human. Conditions: HT29; IC50 cytotoxic agent alone / IC50 combination; Compound 1 at 8x EC50 (360 nM).
The test system of assay [1] is Colo205 human colon carcinoma xenografts. Nature of the assay: in vivo chemopotentiation, Colo205 xenograft. Further details: species or system mice. The protocol:
Experiments 1 to 39 were conducted in mice xenografts. Experiments 40-42 were conducted in rat xenografts. Specifically, irinotecan combination studies were conducted in HT29 and Colo205. Gemcitabine combination studies were conducted in Colo205. Docetaxel combination studies were conducted in Colo205.
Gemcitabine and irinotecan are DNA directed cytotoxics known to induce checkpoint activation and subsequent S/G2M-phase arrest. […] Docetaxel is an antimitotics where recent discoveries describe a novel function for CHK1 in the mitotic checkpoint.

For the next assay, the system named is PC-3 (Prostate). Nature of the assay: cell survival / MTT combination cytotoxicity. The assay is classed as cell-based, human. The conditions noted are these: PC-3; IC50 cytotoxic agent alone / IC50 combination; Compound 1 at 8x EC50 (360 nM).
The next assay deals with K562 (Leukemia). Nature of the assay: cell survival / MTT combination cytotoxicity. The assay is classed as cell-based, human. The conditions noted are these: IC50 cytotoxic agent alone / IC50 combination, Compound 1 at 4x EC50 (180 nM).
Setting [2] is: Exp 1, gemcitabine 120 mg/kg IP Q3d×4, Compound 1 0 mg/kg.
Setting [3] is: Exp 2, gemcitabine 120 mg/kg IP Q3d×4 + Compound 1 4 mg/kg IP Q3d×4 24 h after.
The mark [4] stands for this setting: Exp 3, gemcitabine 120 mg/kg IP Q3d×4 + Compound 1 8 mg/kg IP Q3d×4 24 h after.
Setting [5] is: Exp 4, gemcitabine 120 mg/kg IP Q3d×4 + Compound 1 12 mg/kg IP Q3d×4 24 h after.
Setting [6] is: Exp 5, gemcitabine 120 mg/kg IP Q3d×4 + Compound 1 20 mg/kg IP Q3d×4 24 h after.
Where [7] appears, read: Exp 6, gemcitabine 120 mg/kg IP Q3d×4 + Compound 1 24 mg/kg IP Q3d×4 24 h after.
[8] abbreviates: Exp 7, gemcitabine 120 mg/kg IP Q3d×4 + Compound 1 40 mg/kg IP Q3d×4 24 h after.

In the case of `Nc1ccn([C@@H]2O[C@H](CO)[C@@H](O)C2(F)F)c(=O)n1` [Gemcitabine], the “PF50 (Potentiation Factor50)” value in the assay with Colo205 (Colon) came out at 11.3; in the assay with MDA-MB-231 (Breast) it was 3.6; in the assay on HT29 (Colon), 9; in the assay with PC-3 (Prostate), 12.2; in the assay on K562 (Leukemia), 5.6. For the same compound, the “% TGI” value is listed as 58% in assay [1] (setting [2]); 58% in assay [1] (setting [3]); 63% in assay [1] (setting [4]); 68% in assay [1] (setting [5]); 76% in assay [1] (setting [6]); 81% in assay [1] (setting [7]). In addition, in assay [1] (setting [8]), the “% TGI” value worked out at 90%. The “Growth delay” value worked out at 8 days in assay [1] (setting [2]); 8 days in assay [1] (setting [3]); 8 days in assay [1] (setting [4]); 8.5 days in assay [1] (setting [5]); 12 days in assay [1] (setting [6]); 12 days in assay [1] (setting [7]). In addition, the “Growth delay” value in assay [1] (setting [8]) is recorded as 20 days. Moreover, the “% poten TGI” value in assay [1] (setting [4]) is recorded as 12%; in assay [1] (setting [5]) it was 23%; in assay [1] (setting [6]), 43%; in assay [1] (setting [7]), 55%; in assay [1] (setting [8]), 75%. In addition, the “% TTP” value in assay [1] (setting [6]) worked out at 17%; in assay [1] (setting [7]), 17%; in assay [1] (setting [8]) it was 50%.
For the compound `CCc1c2c(nc3ccc(O)cc13)-c1cc3c(c(=O)n1C2)COC(=O)[C@]3(O)CC` [SN-38], the “PF50 (Potentiation Factor50)” value in the assay on Colo205 (Colon) amounted to 2.1; in the assay on MDA-MB-231 (Breast), 2.4; with HT29 (Colon) it was 3.7; in the assay on PC-3 (Prostate), 1.3; in the assay on K562 (Leukemia) it was 1.9.
